{"source": "BindingDB's records for doi:10.1124/mol.59.3.434", "about": "(Smithkline Beecham Pharmaceuticals, 2001)", "molecular_target": "Histamine H4 receptor (Homo sapiens, UniProt Q9H3N8)", "sequence (Q9H3N8 whole entry)": "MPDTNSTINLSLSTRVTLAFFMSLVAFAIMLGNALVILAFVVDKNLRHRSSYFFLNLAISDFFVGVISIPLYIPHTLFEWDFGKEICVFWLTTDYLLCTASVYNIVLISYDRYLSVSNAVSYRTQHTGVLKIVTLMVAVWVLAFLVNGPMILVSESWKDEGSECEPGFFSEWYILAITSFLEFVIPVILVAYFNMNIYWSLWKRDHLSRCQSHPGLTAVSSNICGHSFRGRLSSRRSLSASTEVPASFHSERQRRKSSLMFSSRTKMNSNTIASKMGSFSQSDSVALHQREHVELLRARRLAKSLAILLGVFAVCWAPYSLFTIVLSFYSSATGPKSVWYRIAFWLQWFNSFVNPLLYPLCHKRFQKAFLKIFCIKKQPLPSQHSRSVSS", "note": "pKi: −log10 of the molar value. “And” between values parts separate entries of the source, which are not always exact repeats. Identical values can stand only once."}
{"smiles": "C[C@@H](N)Cc1c[nH]cn1", "values": [{"measurement": "pKi", "value": "6.46 and 6.63"}]}
